The values that follow come from ChEMBL document CHEMBL5338732, “Perspective for Discovery of Small Molecule IL-6 Inhibitors through Study of Structure-Activity Relationships and Molecular Docking” (J Med Chem, 2023).

Common to all, as to assay type: functional, cell-based
Assay [1] concerns MH60. Kind of assay: Cytotoxicity in mouse MH60 cells assessed as inhibition of recombinant human IL-6-induced growth incubated for 72 hrs by tetrazolium method. The settings on record: MH60, 72 h.
A short description of assay [2]: Cytotoxicity against human p53HCT116 cells assessed as inhibition of cell growth incubated for 72 hrs by MTT assay. To be noted: p53HCT116, 72 h. For orientation: Formazan colour is commonly taken as a measure of viable cells.
Assay [3] is described as follows: Cytotoxicity against human HCT116-p53-null cells assessed as inhibition of cell growth incubated for 72 hrs by MTT assay.
Assay [4] has as its system MDA-MB-435. Kind of assay: Cytotoxicity against human MDA-MB-435 cells assessed as reduction in cell growth incubated for 72 hrs by MTT assay. To be noted: MDA-MB-435, 72 h.

For the compound `CCCCC1=C(C)C(=O)[C@](C)(CN2c3ccccc3[C@]3(O)CCO[C@H]23)C1=O`, the IC50 (as a rule, the concentration that inhibits the measured activity by half) in assay [1] was 30000 nM.
On the same count and under the same terms, for `CCCCC1=C(C)C(=O)[C@@](C)(CN2c3ccccc3[C@]3(O)CCO[C@H]23)C1=O` the value was 8000 nM.
For `Cc1c(-c2ccc(O)cc2)n(Cc2ccc(OCCN3CCCCCC3)cc2)c2ccc(O)cc12` [BAZEDOXIFENE], the IC50 in assay [1] came out at 3800 nM.
For the compound `O=C(NNc1nc2cc(F)ccc2n2cccc12)c1cnccn1`, the IC50 in assay [2], in assay [3] and in assay [4] was 400 nM throughout.
